How the values were obtained:
[1] = test system: Jurkat; assay: Cytotoxicity against human Jurkat cells assessed as inhibition of cell growth incubated for 48 hrs by MTT assay; assay type: functional, cell-based
[2] = Cytotoxicity against rat H9c2 cells assessed as inhibition of cell growth incubated for 48 hrs by MTT assay; assay type: toxicity, cell-based
[3] = test system: HCC1937; assay: Cytotoxicity against human HCC1937 cells assessed as inhibition of cell growth incubated for 48 hrs by MTT assay; assay type: functional, cell-based; conditions: HCC1937, 48 h
[4] = biological target: T1, Pyruvate kinase PKM (Homo sapiens, UniProt P14618); assay: Inhibition of N-terminal his8-tagged PKM2 (unknown origin)
Target sequence in this assay (P14618 whole entry): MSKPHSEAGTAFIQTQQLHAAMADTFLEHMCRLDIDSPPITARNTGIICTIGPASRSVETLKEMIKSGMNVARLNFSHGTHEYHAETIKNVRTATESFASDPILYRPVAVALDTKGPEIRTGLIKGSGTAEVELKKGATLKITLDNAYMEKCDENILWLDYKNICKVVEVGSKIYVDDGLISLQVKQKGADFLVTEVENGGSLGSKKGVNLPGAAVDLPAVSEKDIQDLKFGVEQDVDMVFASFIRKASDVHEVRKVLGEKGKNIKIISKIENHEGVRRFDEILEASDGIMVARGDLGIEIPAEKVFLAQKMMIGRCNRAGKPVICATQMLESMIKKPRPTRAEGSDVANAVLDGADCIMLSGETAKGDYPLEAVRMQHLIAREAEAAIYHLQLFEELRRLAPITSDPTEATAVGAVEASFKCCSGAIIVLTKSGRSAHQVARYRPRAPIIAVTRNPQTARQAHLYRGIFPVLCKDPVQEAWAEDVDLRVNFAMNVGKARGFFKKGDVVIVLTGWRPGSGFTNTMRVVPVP

[5] = test system: MCF7; assay: cells; conditions: Homo sapiens, MCF7, 48 h
Description: Cytotoxicity against human MCF7 cells assessed as inhibition of cell growth incubated for 48 hrs by MTT assay

[6] = biological target: T1, Pyruvate kinase PKM; assay: Inhibition of N-terminal his8-tagged PKM2 (unknown origin) in presence of FBP by Michaelis-menten analysis
Target sequence in this assay (P14618 whole entry): as above

[7] = biological target: T1, Pyruvate kinase PKM; assay: Binding affinity to PKM2 (unknown origin) assessed as protein destabilization by differential scanning fluorimetry; conditions: dose 2.5-10 µM
Target sequence in this assay (P14618 2-531 limits assumed): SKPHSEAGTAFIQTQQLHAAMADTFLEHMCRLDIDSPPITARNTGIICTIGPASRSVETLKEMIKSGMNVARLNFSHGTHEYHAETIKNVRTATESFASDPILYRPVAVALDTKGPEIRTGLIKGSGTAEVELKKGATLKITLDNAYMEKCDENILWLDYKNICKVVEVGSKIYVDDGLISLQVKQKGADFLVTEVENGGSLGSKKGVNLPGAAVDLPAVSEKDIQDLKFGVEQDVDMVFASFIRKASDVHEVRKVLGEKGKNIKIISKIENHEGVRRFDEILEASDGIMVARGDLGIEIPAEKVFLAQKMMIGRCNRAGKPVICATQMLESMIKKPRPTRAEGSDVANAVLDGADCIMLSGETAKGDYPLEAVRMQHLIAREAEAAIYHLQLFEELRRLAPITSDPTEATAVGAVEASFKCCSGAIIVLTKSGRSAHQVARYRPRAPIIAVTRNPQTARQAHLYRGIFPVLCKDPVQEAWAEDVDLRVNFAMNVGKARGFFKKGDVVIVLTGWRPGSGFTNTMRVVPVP

[8] = biological target: T1, Pyruvate kinase PKM; assay: Inhibition of PKM2 (unknown origin) assessed as decrease in monomer population at 5 uM by analytical size-exclusion chromatography relative to control
Target sequence in this assay (P14618 2-531 limits assumed): as above

[9] = biological target: Pyruvate kinase PKLR (Homo sapiens) (UniProt P30613); assay: Inhibition of PKR (unknown origin) at 1 uM relative to control
Sequence of Pyruvate kinase PKLR (Homo sapiens) (P30613 whole entry, looked up): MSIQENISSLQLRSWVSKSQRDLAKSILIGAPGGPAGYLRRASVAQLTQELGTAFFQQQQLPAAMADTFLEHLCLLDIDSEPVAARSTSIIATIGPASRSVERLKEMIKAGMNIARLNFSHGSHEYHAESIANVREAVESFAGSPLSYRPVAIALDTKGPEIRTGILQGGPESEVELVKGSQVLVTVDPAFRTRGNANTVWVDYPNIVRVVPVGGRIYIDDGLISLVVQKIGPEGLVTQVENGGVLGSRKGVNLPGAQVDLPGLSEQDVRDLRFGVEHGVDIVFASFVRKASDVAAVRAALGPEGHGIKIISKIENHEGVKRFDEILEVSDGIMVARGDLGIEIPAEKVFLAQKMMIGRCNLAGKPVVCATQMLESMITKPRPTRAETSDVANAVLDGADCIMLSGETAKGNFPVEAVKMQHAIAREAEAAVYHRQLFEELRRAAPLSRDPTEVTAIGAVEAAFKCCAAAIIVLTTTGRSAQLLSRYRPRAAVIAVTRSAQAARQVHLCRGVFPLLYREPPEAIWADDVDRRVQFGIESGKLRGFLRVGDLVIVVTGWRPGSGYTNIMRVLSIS

[10] = species on record: Oryctolagus cuniculus; assay: Inhibition of rabbit LDH at 1 uM relative to control
[11] = biological target: T1, Pyruvate kinase PKM; assay: Inhibition of PKM2 (unknown origin) assessed as decrease in dimer population at 5 uM by analytical size-exclusion chromatography relative to control
Target sequence in this assay (P14618 2-531 limits assumed): as the sequence (P14618 2-531 limits assumed) above

[12] = biological target: T1, Pyruvate kinase PKM; assay: Inhibition of PKM1 (unknown origin); design: concentration or dose not given beside the values; conditions: concentration not given here
Target sequence in this assay (P14618 2-531 limits assumed): as above

[13] = test system: A549; assay: cells; conditions: Homo sapiens, A549, 48 h
Description: Cytotoxicity against human A549 cells assessed as inhibition of cell growth incubated for 48 hrs by MTT assay

[14] = biological target: T1, Pyruvate kinase PKM; assay: Inhibition of PKM2 (unknown origin) assessed as decrease in dimer population by analytical size-exclusion chromatography; conditions: dose 5.0 µM
Target sequence in this assay (P14618 2-531 limits assumed): as above

[15] = biological target: T1, Pyruvate kinase PKM; assay: Inhibition of PKM2 (unknown origin) assessed as decrease in dimer population at 5 uM in presence of FBP by analytical size-exclusion chromatography relative to control
Target sequence in this assay (P14618 2-531 limits assumed): as above

[16] = test system: 4T1; assay: Cytotoxicity against mouse 4T1 cells assessed as inhibition of cell growth incubated for 48 hrs by MTT assay; assay type: functional, cell-based; conditions: 4T1, 48 h
[17] = biological target: T1, Pyruvate kinase PKM; assay: Inhibition of PKM2 (unknown origin) assessed as increase in tetramer ratio by analytical size-exclusion chromatography; conditions: dose 5.0 µM
[18] = test system: MDA-MB-231; assay: Cytotoxicity against human MDA-MB-231 cells assessed as inhibition of cell growth incubated for 48 hrs by MTT assay; assay type: functional, cell-based; conditions: MDA-MB-231, 48 h

| Compound | IC50 [1] | IC50 at 48 h [2] | IC50 [3] | IC50 [4] | IC50 [5] | IC50 [6] | Activity [7] | inhibition [8] | inhibition [9] | inhibition [10] | inhibition [11] | inhibition [12] | IC50 [13] | inhibition [14] | inhibition [15] | IC50 ([16]; read-out: IC50) | inhibition [17] | IC50 [18] | IC50 [16] |
| --- | --- | --- | --- | --- | --- | --- | --- | --- | --- | --- | --- | --- | --- | --- | --- | --- | --- | --- | --- |
| COC(=O)c1cc[n+]2[se]c(C3(O)C4CC5CC(C4)CC3C5)c(Br)c2c1 (stereo not drawn) | 6180 nM | 4760 nM | 2890 nM | > 1000 nM | 6870 nM | – | – | – | – | – | – | – | – | – | – | – | – | – | – |
| NC(=O)c1cc[n+]2[se]c(C3(O)CCCCC3)c(Br)c2c1 | 1000 nM | 1410 nM | 600 nM | 420 nM | 2220 nM | 572 nM | Dose-Dependent Effect | 38% | 37% | 6% | 69.1% | 15% | 2810 nM | Dose-Dependent Effect | 43.2% | 1410 nM | Dose-Dependent Effect | 1150 nM | – |
| COC(=O)c1cc[n+]2[se]c(C3(O)CCC(F)(F)CC3)c(Br)c2c1 | 480 nM | 1060 nM | 240 nM | 637 nM | 280 nM | 572 nM | – | – | 29% | 2% | – | 11% | 1160 nM | – | – | 1480 nM | – | 480 nM | – |
| COc1cccc2c1C(=O)c1c(O)c3c(c(O)c1C2=O)C[C@@](O)(C(=O)CO)C[C@@H]3O[C@H]1C[C@H](N)[C@H](O)[C@H](C)O1 [DOXORUBICIN] | 320 nM | 3900 nM | 1080 nM | – | 470 nM | – | – | – | – | – | – | – | 230 nM | – | – | – | – | 410 nM | 65 nM |
| O=c1cc(-c2ccc(O)cc2)oc2cc(O)cc(O)c12 [APIGENIN] | – | – | – | > 20000 nM | – | > 20000 nM | – | – | – | – | – | – | – | – | – | – | – | – | – |
| NC(=O)c1cccc2c(Br)c(C3(O)CCCCC3)[se][n+]12 | 1880 nM | 2630 nM | 1330 nM | > 1000 nM | 3850 nM | – | – | – | – | – | – | – | – | – | – | – | – | – | – |
| COC(=O)c1ccc2c(Br)c(C3(O)CCCCC3)[se][n+]2c1 | 250 nM | 890 nM | 310 nM | 545 nM | 870 nM | 303 nM | – | – | 39% | 10% | – | 16% | 1310 nM | – | – | 700 nM | – | 430 nM | – |
| NC(=O)c1cc[n+]2[se]c(C3(O)C4CC5CC(C4)CC3C5)c(Br)c2c1 (stereo not drawn) | 910 nM | 910 nM | 740 nM | 1010 nM | 610 nM | – | – | – | 11% | 6% | – | 21% | 2210 nM | – | – | 560 nM | – | 650 nM | – |
| CCCCCCCCCCCCCC(C)(O)c1[se][n+]2ccc(C(=O)OC)cc2c1Br (stereo not drawn) | 3380 nM | 3630 nM | 2450 nM | > 1000 nM | 3790 nM | – | – | – | – | – | – | – | – | – | – | – | – | – | – |
| [2H]C([2H])([2H])OC(=O)c1cc[n+]2[se]c(C3(O)CCCCC3)c(Br)c2c1.[Cl-] | 490 nM | 640 nM | 540 nM | 478 nM | 380 nM | 610 nM | – | – | – | – | – | – | 1200 nM | – | – | 1110 nM | – | 400 nM | – |
| COC(=O)c1cc[n+]2[se]c(C3([O-])CCC3)c(Br)c2c1 | 3240 nM | 2970 nM | 3030 nM | 854 nM | 2800 nM | 603 nM | – | – | 20% | 7% | – | 26% | 9120 nM | – | – | > 10000 nM | – | 6510 nM | – |
| NC(=O)c1cc[n+]2[se]c(C3(O)CCC(F)(F)CC3)c(Br)c2c1 | 1430 nM | 1410 nM | 600 nM | 362 nM | 1000 nM | 542 nM | – | – | 40% | 13% | – | 26% | 3170 nM | – | – | 1250 nM | – | 1360 nM | – |
| O=C(O)c1cc[n+]2[se]c(C3(O)CCCCC3)c(Br)c2c1 | 6610 nM | 7820 nM | 5820 nM | 1060 nM | > 10000 nM | – | – | – | 5% | 9% | – | 4% | 7030 nM | – | – | 6810 nM | – | 6120 nM | – |
| OC1(c2[se][n+]3ccccc3c2Br)CCCCC1 | – | – | – | 2920 nM | – | 2730 nM | – | – | – | – | – | – | – | – | – | – | – | – | – |
| COC(=O)c1cc[n+]2[se]c(C3([O-])CCCC3)c(Br)c2c1 | 480 nM | 770 nM | 410 nM | 380 nM | 360 nM | 517 nM | – | – | 42% | 6% | – | 20% | 8700 nM | – | – | 2040 nM | – | 1660 nM | – |
| NC(=O)c1ccc2c(Br)c(C3(O)CCCCC3)[se][n+]2c1 | 600 nM | 1270 nM | 1500 nM | > 1000 nM | 2300 nM | – | – | – | – | – | – | – | – | – | – | – | – | – | – |
| COC(=O)c1cc2c(Br)c(C3(O)CCCCC3)[se][n+]2cc1F | 1160 nM | 1680 nM | 1190 nM | 897 nM | 1080 nM | – | – | – | 15% | 7% | – | 29% | 2930 nM | – | – | 2340 nM | – | 1380 nM | – |
| O=C(O)c1ccc2c(Br)c(C3(O)CCCCC3)[se][n+]2c1 | 3260 nM | 3550 nM | 3850 nM | > 1000 nM | > 10000 nM | – | – | – | – | – | – | – | – | – | – | – | – | – | – |
| CCCCCCCCCCCCCC(C)(O)c1[se][n+]2ccc(C(N)=O)cc2c1Br (stereo not drawn) | 2000 nM | 1910 nM | 910 nM | 901 nM | 1010 nM | – | – | – | 29% | 9% | – | 23% | 3720 nM | – | – | 4320 nM | – | 2420 nM | – |
| COC(=O)c1cc(C)[n+]2[se]c(C3(O)CCCCC3)c(Br)c2c1 | 450 nM | 900 nM | 340 nM | 1360 nM | 300 nM | – | – | – | 28% | 7% | – | 10% | 1120 nM | – | – | 960 nM | – | 370 nM | – |
